Data as given in patent US20210386841A1, “COMPOSITIONS FOR TRANSFECTING mRNA INTO A CELL AND THEIR APPLICATIONS” (POLYPLUS TRANSFECTION, priority 2018, published 2021).

Assays:
[1] = tested on: Caco-2 human colon epithelial cells; test: eGFP mRNA transfection, Caco-2 cells (96-well); format: cell-based; conditions: for Transfection efficiency (eGFP %) CaCO2: co-lipid DOPE, ratio 1/2, 150 ng eGFP mRNA, 24 h
Protocol: Caco-2 (ATCC® HTB-37™) human colon epithelial cells were grown in DMEM 4.5 g/L glucose with 20% FBS supplemented with 1% non-essential amino acids, 1 mM sodium pyruvate, 2 mM glutamine and 100 U/mL of penicillin and 100 μg/mL of streptomycin at 37° C. in a 5% CO2 in air atmosphere.
(§1) mRNA eGFP (996 nt, reference L-6101) from TriLink Technologies was used for the in vitro transfection experiments and expressed enhanced green fluorescent protein which is a common reporter gene (eGFP). This mRNA was capped with a Cap 0, polyadenylated and modified with 5-methylcytidine and pseudo-uridine.
(§2) One day before transfection, Caco-2, THP-1 or BJ Cells were seeded at 10 000, 25 000, or 5 000 cells per well (96-well plate format), respectively, in 125 μL of their respective complete medium and incubated at 37° C. in a 5% CO2 in air atmosphere. For Jurkat cells, 25 000 cells were seeded per well prior transfection. On the day of transfection 150 ng of mRNA was added in 11.5 μL of 5% glucose solution, mixed with a vortex and incubated for 5 minutes at rt. Then, 1 μL of 1 mM cationic liposomal formulation was added onto the diluted mRNA, mixed with a vortex and incubated for 15 minutes at rt. The formulated mRNA solution (12.5 μL) was added into the well and the plate was incubated for 24 hours at 37° C. in a 5% CO2 in air atmosphere.
(§3) For the GFP expression analysis, the cell culture medium was removed for the adherent cells and 50 μL of trypsin-EDTA (1×, Lonza) was added and the plate was incubated for 5 minutes at 37° C. 150 μL of complete medium were added to neutralize the trypsin, and the GFP expression was analysed (2000 events) by flow cytometry (Exc 488 nm, Em 520 nm) using a Guava easyCyte 6HT cytometer (Millipore).
(§4) All these new liposomal formulations (Table 1) were assessed to deliver mRNA expressing an enhanced green fluorescent protein (eGFP) as reporter gene in order to determine the gene expression and the transfection efficiency (Table 2). mRNA eGFP capped with a Cap 0 in 5′-end, polyadenylated in 3′-end and modified with 5-methylcytidine and pseudo-uridine was used in the transfection assay. The transfection assay was performed as described in the Experimental section where 150 ng of mRNA eGFP was complexed with 1 μL of 1 mM cationic liposomal formulations in a 5% glucose solution before the addition on the cells. One day post-transfection, the eGFP expression was analyzed by flow cytometry to determine the percentage of transfection. Four different cell lines were used in this assay from easy to transfect cells to hard to transfect cells with plasmid DNA, including human BJ skin fibroblast cells, THP-1 human peripheral blood monocytes, Caco-2 human colon epithelial cells and Jurkat Clone E6-1 human T lymphoblast cells, respectively.

[2] = tested on: BJ human skin fibroblast cells; test: eGFP mRNA transfection, BJ cells (96-well); format: cell-based; conditions: co-lipid DOPE, ratio 1/2; 150 ng eGFP mRNA; 24 h
Protocol: BJ (ATCC® CRL-2522™) human skin fibroblast cells were grown in Eagle's Minimum Essential Medium with 10% FBS and supplemented with 1% non-essential amino acids, 1 mM sodium pyruvate, 2 mM glutamine and 100 U/mL of penicillin and 100 μg/mL of streptomycin at 37° C. in a 5% CO2 in air atmosphere.
as §1, §2, §3, §4

[3] = tested on: THP-1 human peripheral blood monocyte cells; test: eGFP mRNA transfection, THP-1 cells (96-well); format: cell-based; conditions: ratio 1/2, 150 ng eGFP mRNA, 24 h
Protocol: THP-1 (ATCC® TIB-202™) human peripheral blood monocyte cells were grown in RPMI-1640 with 10% FBS and supplemented with 10 mM HEPES buffer, 1 mM sodium pyruvate, 0.05 mM 2-mercaptoethanol, 2 mM glutamine, 100 U/mL of penicillin and 100 μg/mL of streptomycin at 37° C. in a 5% CO2 in air atmosphere.
as §1, §2, §3, §4

[4] = tested on: Jurkat Clone E6-1 human T lymphoblast cells; test: eGFP mRNA transfection, Jurkat cells (96-well); format: cell-based; conditions: 150 ng eGFP mRNA, 24 h
Protocol: Jurkat Clone E6-1 (ATCC® TIB-152™) human T lymphoblast cells were grown in RPMI-1640 (LONZA) with 10% of FBS (EUROBIO) and supplemented with 2 mM Glutamine (LONZA), 100 U/mL of penicillin and 100 μg/mL of streptomycin (LONZA) at 37° C. in a 5% CO2 in air atmosphere.
as §1, §2, §3, §4

[5] = tested on: BJ, THP-1, Caco-2 and Jurkat cells; test: eGFP mRNA transfection, overall statements on the four cell lines; format: cell-based, human; conditions: formulated with co-lipid DOPE or DPyPE
Protocol: as §1, §2, §3, §4

[6] = co-lipid DOPE, ratio compound/co-lipid 1/2, 1 μL of 1 mM formulation, flow cytometry

| Structure (SMILES) | Transfection efficiency (eGFP %) CaCO2 [1] | Transfection efficiency (eGFP %) BJ [2] | Transfection efficiency (eGFP %) THP-1 ([3]; co-lipid DOPE) | Transfection efficiency (eGFP %) Jurkat [4, 6] | transfection activity (in words) [5] | GFP expression one day post-transfection, comparison of co-lipids ([1]; CaCo2 cells, co-lipid DPyPE versus DOPE, PaLiPE, DiLiPE, molar ratio 1:2 (FIG. 3)) | Transfection efficiency (eGFP %) THP-1 ([3]; co-lipid DPyPE) | Transfection efficiency (eGFP %) Jurkat ([4]; co-lipid DPyPE, ratio 1/2) |
| --- | --- | --- | --- | --- | --- | --- | --- | --- |
| CCCCCCCC/C=C\CCCCCCCCC(CCCCCCCC/C=C\CCCCCCCC)[n+]1ccn(C)c1.[Cl-] [Compound W1.4, 1-methyl-3-(heptatriaconta-9,28-dien-19-yl)-1-methyl-1H-imidazol-3-ium chloride] | 15-25% | 80-95% | 80-85% | 10-15% |  |  |  |  |
| CCCCCCC/C=C\CCCCCCCCC(CCCCCCCCCCCCCC)[n+]1ccn(C)c1 (stereo not drawn) [Compound W2.5] | 5-10% | 70-85% | 70-75% | 1-5% |  |  |  |  |
| CCCCCCC/C=C\CCCCCCCCC(CCCCCCCCCCCCCCCCCC)[n+]1ccn(C)c1.[Cl-] (stereo not drawn) [Compound W3.5, 1-methyl-3-(hexatriacont-8-en-18-yl)-1H-imidazol-3-ium chloride] | 35-40% | 80-95% | 35-45% | 10-15% |  |  |  |  |
| CCCCCCCCCCCCCCC(CCCCCCCCCCCCCC)[n+]1ccn(C)c1.[Cl-] [Compound W4.3, 1-methyl-3-(nonacosan-15-yl)-1H-imidazol-3-ium chloride] | 5-10% | 50-60% | 30-40% | 0-1% | reduced transfection activity |  |  |  |
| CCCCCCCCCCCCCCCCC(CCCCCCCCCCCCCCCC)[n+]1ccn(C)c1.[Cl-] [Compound W5.3, 1-methyl-3-(tritriacontan-17-yl)-1H-imidazol-3-ium chloride] | 5-10% | 60-70% | 50-60% | 0-2% | reduced transfection activity |  |  |  |
| CCCCCCCCCCCCCCCCCCC(CCCCCCCCCC)[n+]1ccn(C)c1.[Cl-] (stereo not drawn) [Compound W6.3, 1-methyl-3-(nonacosan-11-yl)-1H-imidazol-3-ium chloride] | 5-10% | 80-85% | 30-40% | 20-25% |  |  |  |  |
| CCCCCCCCCCCCCCCCCCC(CCCCCCCCCCCCCCCCC)C[n+]1ccn(C)c1.[Cl-] (stereo not drawn) [Compound W7.4, 1-methyl-3-(2-heptadecylicosyl)-1H-imidazol-3-ium chloride] | 5-15% | 65-75% | 40-50% | 5-15% |  |  |  |  |
| CCCCCCC/C=C\CCCCCCCCC(CCCCCCCC/C=C\CCCCCCCC)[n+]1ccn(C)c1.[Cl-] (stereo not drawn) [Compound W8.7, 1-methyl-3-(hexatriaconta-8,27-dien-18-yl)-1H-imidazol-3-ium] |  | 80-85% | 70-80% | 10-15% |  |  |  |  |
| CCCCCCCCCCCCCCC(CCCCCCCCCCCCCC)CCCCC(CCCCCCCCCCCCCC)[n+]1ccn(C)c1.[Cl-] (stereo not drawn) [Compound W9.7, 1-methyl-3-(20-tetradecyltetratriacontan-15-yl)-1H-imidazol-3-ium chloride] | 40-50% | 90-95% | 70-80% | 10-15% |  | optimal |  |  |
| CCCCCCCC/C=C\CCCCCCCCC(CCCCC(CCCCCCCCCCCCCC)CCCCCCCCCCCCCC)[n+]1ccn(C)c1.[Cl-] (stereo not drawn) [Compound W10.7, 1-methyl-3-(24-tetradecyloctatriacont-9-en-19-yl)-1H-imidazol-3-ium chloride] | 65-75% | 90-95% | 70-80% | 25-30% |  |  |  |  |
| CCCCCCCCCCCCCCCCCCC(CCCCC(CCCCCCCCCCCCCC)CCCCCCCCCCCCCC)[n+]1ccn(C)c1.[Cl-] (stereo not drawn) [Compound W11.7, 1-methyl-3-(24-tetradecyloctatriacontan-19-yl)-1H-imidazol-3-ium chloride] | 35-45% | 90-95% | 80-90% | 15-25% |  |  |  |  |
| CCCCCCCCCCCCCCCCCCC(CCCCCCCCCCCCCCCCCC)CCCCC(CCCCCCCCCCCCCCCCCC)[n+]1ccn(C)c1.[Cl-] (stereo not drawn) [Compound W13.7, 1-methyl-3-(24-octadecyldotetracontan-19-yl)-1H-imidazol-3-ium chloride] | 75-80% | 65-75% | 80-85% | 10-20% |  |  |  |  |
| CCCCCCCC/C=C\CCCCCCCCC(CCCCC(CCCCCCCCCCCCCC)CCCCCCCCCCCCCC)[n+]1ccn(CCCC)c1.[Cl-] (stereo not drawn) [Compound W20.7, 1-butyl-3-(24-tetradecyloctatriacont-9-en-19-yl)-1H-imidazol-3-ium chloride] | 80-85% | 90-95% | 80-90% | 60-70% |  |  | 65-80% | 50-60% |
| CCCCCCCCCCCCCCCCC(CCCCCCCCCCCCCCCC)CCC[n+]1ccn(C)c1 [Compound W29.5, 1-methyl-3-(4-hexadecylicosyl)-1H-imidazol-3-ium chloride] |  |  | 30-40% | 10-15% | without really affecting the transfection activity |  |  |  |
| CCCCCCCCCCCCCCCCCCC(CCCCCCCCCCCCCCCCCC)n1cc[n+](C)c1.[Cl-] [MONI, 1-Methyl-3-(1-Octadecyl-Nonadecyl)-3H-Imidazol-1-ium chloride, reference compound] | 5-10% | 50-60% | 30-40% | 5-10% |  |  |  |  |
